Experimental data from patent US9212168B2 (priority 2011, dated 2015).

Tests used:
HCV genotype 1b replicon = HCV genotype 1b replicon assay (Renilla luciferase readout); assay type: cell-based, hepatitis C virus; details: for EC50: Hepatitis C virus, read-out: Genotype 1b; for Genotype 1b: HCV genotype 1b replicon
Summary of the method: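 Reported as pEC50 derived from a 4-parameter fit of Renilla luciferase activity against concentration. Replicon cells (APC144, Huh7 background) were exposed to compound for 48 h in G418-free medium with final 0.5% DMSO, after seeding at 10,000 cells/well and 4 h adherence.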

HCV genotype 1a replicon = HCV genotype 1a replicon assay (NS3 protease activity readout); assay type: cell-based, hepatitis C virus; details: for EC50: Hepatitis C virus, read-out: Genotype 1a, HCV genotype 1a replicon; for Genotype 1a: HCV genotype 1a replicon
Summary of the method: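 EC50 values came from a 4-parameter robust fit of fluorescence (ex 340, em 509 nm) produced by NS3-specific protease in lysates, assayed with 15 μM FRET substrate for 20 min at 37° C, after 48 or 72 hours of compound exposure (0.5% DMSO) of Huh7.5-derived APC89 genotype 1a replicon cells.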

With `COC(=O)N[C@H](C(=O)N1C[C@@H](C)C[C@H]1c1nc(-c2ccc(-c3cc(Cl)c(NC(=O)c4ccc(N5CCN(C(=O)C(C)(C)C)C[C@H]5C)nc4)cc3OC(F)(F)F)cc2)c[nH]1)C(C)(C)O` [Example 13-5] the EC50 (HCV genotype 1b replicon) was under 0.1 nM and the EC50 (HCV genotype 1a replicon) was under 0.1 nM.
`COC(=O)NC(C(=O)N1CC(C)CC1c1nc(-c2ccc(-c3ccc(NC(=O)c4ccc(N5CCN(C(=O)C(C)(C)C)CC5C)nc4)cc3OC(F)(F)F)cc2)c[nH]1)C1CCOCC1` (stereo not shown) [Example 13-12] was tested, and the “Genotype 1b” value (HCV genotype 1b replicon) was “D (D represents pEC50>10 (EC50<0.1 nM))” and the “Genotype 1a” value (HCV genotype 1a replicon) was “D (D represents pEC50>10 (EC50<0.1 nM))”.
Compound `COC(=O)N[C@H](C(=O)N1C[C@@H](C)C[C@H]1c1nc(-c2ccc(-c3cc(Cl)c(NC(=O)c4ccc(N5CCN(C(=O)C(C)(C)CO)C[C@H]5C)nc4)cc3OC(F)(F)F)cc2)c[nH]1)C(C)(C)O` [Example 13-16] has an EC50 (HCV genotype 1b replicon) of under 0.1 nM and an EC50 (HCV genotype 1a replicon) of under 0.1 nM.
`COC(=O)N[C@H](C(=O)N1C[C@@H](C)C[C@H]1c1nc(-c2ccc(-c3cc(Cl)c(NC(=O)c4ccc(N5CCN(C(=O)C(C)(C)CO)C[C@H]5C)nc4)cc3OC(F)(F)F)cc2)c[nH]1)[C@H](C)O` [Example 13-17] was tested, and the EC50 (HCV genotype 1b replicon) was under 0.1 nM and the EC50 (HCV genotype 1a replicon) was under 0.1 nM.
With `COC(=O)N[C@H](C(=O)N1C[C@@H](C)C[C@H]1c1nc(-c2ccc(-c3cc(Cl)c(NC(=O)c4ccc(N5CCN(C(=O)C(C)(C)CO)C[C@H]5C)nc4)cc3OC(F)(F)F)cc2)c[nH]1)[C@H](C)OC` [Example 13-18] the EC50 (HCV genotype 1b replicon) was under 0.1 nM and the EC50 (HCV genotype 1a replicon) was under 0.1 nM.
Work on `COC(=O)N[C@H](C(=O)N1C[C@@H](C)C[C@H]1c1nc(-c2ccc(-c3cc(Cl)c(NC(=O)c4ccc(N5CCN(C(=O)C(C)(C)CO)C[C@H]5C)nc4)cc3OC(F)(F)F)cc2)c[nH]1)C1CCOCC1` [Example 13-19] yielded an EC50 (HCV genotype 1b replicon) of under 0.1 nM and an EC50 (HCV genotype 1a replicon) of under 0.1 nM.
Work on `COC(=O)N[C@H](C(=O)N1C[C@@H](C)C[C@H]1c1nc(-c2ccc(-c3cc(F)c(NC(=O)c4ccc(N5CCN(C(=O)C(C)(C)C)C[C@H]5C)nc4)cc3OC(F)(F)F)cc2)c[nH]1)[C@H](C)O` [Example 13-20] yielded an EC50 (HCV genotype 1b replicon) of under 0.1 nM and an EC50 (HCV genotype 1a replicon) of under 0.1 nM.
`COC(=O)N[C@H](C(=O)N1C[C@@H](C)C[C@H]1c1nc(-c2ccc(-c3cc(F)c(NC(=O)c4ccc(N5CCN(C(=O)C(C)(C)C)C[C@H]5C)nc4)cc3OC(F)(F)F)cc2)c[nH]1)[C@H](C)OC` [Example 13-21] was tested, and the EC50 (HCV genotype 1b replicon) was under 0.1 nM and the EC50 (HCV genotype 1a replicon) was under 0.1 nM.
In the case of `COC(=O)N[C@H](C(=O)N1C[C@@H](C)C[C@H]1c1nc(-c2ccc(-c3cc(F)c(NC(=O)c4ccc(N5CCN(C(=O)C(C)(C)C)C[C@H]5C)nc4)cc3OC(F)(F)F)cc2)c[nH]1)C1CCOCC1` [Example 13-22], the EC50 (HCV genotype 1b replicon) is reported as under 0.1 nM and the EC50 (HCV genotype 1a replicon) is reported as under 0.1 nM.
Compound `COC(=O)N[C@H](C(=O)N1C[C@@H](C)C[C@H]1c1nc(-c2ccc(-c3cc(F)c(NC(=O)c4ccc(N5CCN(C(=O)C(C)(C)C)C[C@H]5C)nc4)cc3OC(F)(F)F)cc2)c[nH]1)C(C)(C)O` [Example 13-24] has an EC50 (HCV genotype 1b replicon) of under 0.1 nM and an EC50 (HCV genotype 1a replicon) of under 0.1 nM.
With `COC(=O)N[C@H](C(=O)N1C[C@@H](C)C[C@H]1c1nc(-c2ccc(-c3cc(F)c(NC(=O)c4ccc(N5CCN(C(=O)C(C)(C)CO)C[C@H]5C)nc4)cc3OC(F)(F)F)cc2)c[nH]1)C1CCOCC1` [Example 13-27] the EC50 (HCV genotype 1b replicon) was under 0.1 nM and the EC50 (HCV genotype 1a replicon) was under 0.1 nM.
In the case of `COC(=O)NC(C(=O)N1CC(C)CC1c1nc(-c2ccc(-c3ccc(NC(=O)c4ccc(N5CCN(C(=O)C(C)(C)CO)CC5C)nc4)cc3OC(F)(F)F)cc2)c[nH]1)C(C)(C)O` (stereo not shown) [Example 13-28], the “Genotype 1b” value (HCV genotype 1b replicon) is reported as “D (D represents pEC50>10 (EC50<0.1 nM))” and the “Genotype 1a” value (HCV genotype 1a replicon) is reported as “D (D represents pEC50>10 (EC50<0.1 nM))”.
In the case of `COC(=O)NC(C(=O)N1CC(C)CC1c1nc(-c2ccc(-c3ccc(NC(=O)c4ccc(N5CCN(C(=O)C(C)(C)CO)CC5C)nc4)cc3OC(F)(F)F)cc2)c[nH]1)C(C)C` (stereo not shown) [Example 13-29], the “Genotype 1b” value (HCV genotype 1b replicon) is reported as “D (D represents pEC50>10 (EC50<0.1 nM))” and the “Genotype 1a” value (HCV genotype 1a replicon) is reported as “D (D represents pEC50>10 (EC50<0.1 nM))”.
With `COC(=O)NC(C(=O)N1CC(C)CC1c1nc(-c2ccc(-c3ccc(NC(=O)c4ccc(N5CCN(C(=O)C(C)(C)CO)CC5C)nc4)cc3OC(F)(F)F)cc2)c[nH]1)C(C)O` (stereo not shown) [Example 13-30] the “Genotype 1b” value (HCV genotype 1b replicon) was “D (D represents pEC50>10 (EC50<0.1 nM))” and the “Genotype 1a” value (HCV genotype 1a replicon) was “D (D represents pEC50>10 (EC50<0.1 nM))”.
